Reference: US7772206B2, “Methods and compositions for the treatment of autoimmune disorders using clofarabine” (Genzyme Corporation, priority 2002, dated 2010)

Tests used:
[1] = maximum tolerated dose of clofarabine; type: in vivo; details: species and study not stated
Description: It may be necessary to use dosages of the active ingredient outside the ranges disclosed herein in some cases, as will be apparent to those of ordinary skill in the art, but the dosage should not fall below 1.0 mg/kg/day. The maximum tolerated doses of clofarabine is approximately 80 mg/kg per day. Furthermore, it is noted that the clinician or treating physician will know how and when to interrupt, adjust, or terminate therapy in conjunction with individual patient response.

[2] = degradation of the drug during dissolution, lyophilization and drying of the parenteral formulation; type: physicochemical; details: dissolution in tertiary butanol/Water for Injection at 5° C., lyophilization at −16° C. for 48 hours, drying at 15° C. under high vacuum for 48 hours, protected from light
Description: Clofarabine, 9.86 g, is wetted/partially dissolved with 600 mL of a 9:1 mixture of tertiary butanol and Water for Injection USP which is pre-cooled to 5° C. Once the drug powder is completely wetted, dissolution is completed by the addition of 600 mL of a 1:9 mixture of tertiary butanol and Water for Injection and 766 mL of a 1:1 mixture of tertiary butanol and Water for Injection which likewise is pre-cooled to 5° C. thereby making the final solution a 1:1 mixture. The dissolution is carried out under protection from light.
The solution formed above is promptly lyophilized in a Virtis INOTOP lyophilizer at −16° C. under light protectant conditions over a period of 48 hours. The resultant lyophilized product (lyophile) is then further dried at 15° C. under high vacuum for 48 hours. […] The lyophile is packaged under sterile conditions into 30 mL vials, each containing 50 mg of drug, 50 mg of mannitol and sodium hydroxide to adjust the pH to 7.7 and standard excess to allow for vial/needle/syringe loss.

With `Nc1nc(Cl)nc2c1ncn2[C@@H]1O[C@H](CO)[C@@H](O)[C@@H]1F` [Clofarabine, 2 Chloro 9 (2 deoxy 2 fluoro β D arabinofuranosyl)adenine] the maximum tolerated dose [1] was “approximately 80 mg/kg per day” and the “degradation of the drug” value [2] was “No detectable degradation”.
